Experimental data published in paper PMC6315362, “Cytotoxic Potential of the Novel Horseshoe Crab Peptide Polyphemusin III” (Marine Drugs, 2018).
Where no end group is shown, it is not given here.

Key:
HL-60 cells = assay: Annexin V-FITC/propidium iodide double staining and flow cytometry; assay type: cell-based, human; settings: HL-60, 4 h of incubation, 50 μM Z-VAD-FMK
Excerpt: To further investigate the effect of PM III on human cells, we performed annexin V-FITC/propidium iodide double staining with subsequent flow cytometric analysis. Annexin V-FITC binds to phosphatidylserine, which is exposed on the outer leaflet of the cellular plasma membrane at the initial stages of apoptosis, whereas propidium iodide (PI) preferentially stains nuclei of dead cells. Therefore, a combination of annexin V-FITC and PI assays allows differentiation between early apoptotic and late apoptotic/necrotic cell populations. PM III was used at two final concentrations of 2.5 and 5 μM. In order to elucidate the predominant mechanism of the PM III action, we applied a widely used caspase inhibitor, Z-VAD-FMK [23].
Cell death analysis with fluorescein isothiocyanate conjugated annexin V (annexin V-FITC)/propidium iodide double staining and dead cells counting with flow cytometry were performed 4 h after addition of polyphemusin III up to a final concentration of 2.5 or 5 μM. The Annexin V-FITC Apoptosis Detection Kit (BD Biosciences, Franklin Lakes, NJ, USA) was used according to the manufacturer’s protocol on a NovoCyte flow cytometer (ACEA Biosciences, San Diego, CA, USA). Each experiment was performed in triplicate. The apoptosis inducer camptothecin (Sigma-Aldrich, St. Louis, MO, USA) and the general caspase inhibitor, Z-VAD-FMK (BD Biosciences, Franklin Lakes, NJ, USA), were used. All flow cytometry experiments were performed twice.

[1] = tested on: Gram-negative and Gram-positive bacteria; settings: synthetic PM I against Gram-negative and Gram-positive bacteria; cited from earlier work
Method: Our experimental data for the obtained recombinant PM I are in line with those obtained earlier for synthetic PM I against Gram-negative and Gram-positive bacteria (with reported MICs not exceeding 1 μM).

CC[C@@]1(O)C(=O)OCc2c1cc1n(c2=O)Cc2cc3ccccc3nc2-1 [campthotecin, camptothecin]
influence of the caspase inhibitor Z-VAD-FMK on the effect of the substance (annexin V-FITC/PI staining) (HL-60 cells): totally abrogated

synthetic PM I: synthetic polyphemusin I of earlier reports (RRWCFRVCYRGFCYRKCR; ends and bridges not checked; cysteine pairing not given here; UniProt P14215 1-18, looked up)
MICs [1]: ≤ 1 µM
